Source: the OligoGym collection
After the bases stand the sugars from the 5' end (letter, count) and the backbone: PS all phosphorothioate, else s phosphorothioate and o phosphodiester by linkage. Methylation of C is not given here. l = locked nucleic acid (LNA); d = 2'-deoxy (DNA)

Biological target: SNHG14
Conditions: ASO

Sequence | target mRNA inhibition (Human Neuronal Cell, 0.2 µM) [%] | target mRNA inhibition (Human Neuronal Cell, 1 µM) [%] | target mRNA inhibition (Human Neuronal Cell, 7.5 µM) [%] | other results
ACTTAATTATACTTCC (sugars l4 d10 l2, PS) | 62 | 64 | – | –
TTTATACCTTTCTTTAACCC (sugars l1 d15 l1 d1 l2, PS) | – | – | 36 | –
GTTACCTACATCTCAT (sugars l2 d12 l2, PS) | -6 | 20 | – | target mRNA inhibition (Human Neuronal Cell, 5 µM): 31%; target mRNA inhibition (Mouse Primary Neuronal Cell, 0.005 µM): 84.2%
TTATACCCTTTCCAAT (sugars l2 d10 l4, PS) | 40 | 60 | – | –
ATCTTTCCATTTATTTCCAT (sugars ldddddlddddddlddddll, PS) | – | – | 41 | –
TTGATTCAATTCCCTTA (sugars lldldddddddldldll, PS) | – | – | 59 | –
TGACATAACCATATAC (sugars l3 d10 l3, PS) | 20 | 30 | – | –
CTGCCATCTTTATTTAT (sugars l4 d11 l2, PS) | 5 | 9 | – | –
TCAGCTTTTAACCAGAGT (sugars l2 d13 l3, PS) | – | – | 79 | –
AGTTCTACTATACTTTCC (sugars l1 d12 l1 d2 l2, PS) | – | – | 52 | –
CAACATTATTAACCACCTT (sugars l1 d14 l4, PS) | – | – | 47 | –
TTCCATTTATTTCCATTTAT (sugars ldldllddddddddldddll, PS) | – | – | 59 | –
CCTTTCCAATGAATCT (sugars l3 d10 l3, PS) | 45 | 60 | – | –
TACACTTAATTATACTTCCA (sugars l1 d4 l1 d11 l3, PS) | – | – | 53 | –
AGTTCTACTATACTTTC (sugars ldlldddddddldllll, PS) | – | – | 30 | –
TTTATCAATATCTTCTCACT (sugars lddlddldddddddddldll, PS) | – | – | 58 | –
ACTCTGCAATACACCAA (sugars lldllddddddllddll, PS) | – | – | 38 | –
CAAGTTTCCTATATTCT (sugars l4 d11 l2, PS) | 66 | 70 | – | –

Sequence | target mRNA inhibition (Human Neuronal Cell, 0.2 µM) [%] | target mRNA inhibition (Human Neuronal Cell, 1 µM) [%] | target mRNA inhibition (Human Neuronal Cell, 7.5 µM) [%] | other results
AGTTCTACTATACTTTCC (sugars lddddldddddddlddll, PS) | – | – | 60 | –
AGCTTTTAACCAGAGTG (sugars l2 d11 l4, PS) | – | – | 78 | –
CCATTTATTTCCATTTATTT (sugars ldldddddddddddllddll, PS) | – | – | 52 | –
CACTAATAATTCACTTT (sugars l4 d11 l2, PS) | 31 | 49 | – | –
CCATACAGTATATACA (sugars l4 d10 l2, PS) | 31 | 56 | – | –
AATTTTTTTCTTACTATCTT (sugars lldldlddddddddlddlll, PS) | – | – | 43 | –
TTACACTTAATTATACTTCC (sugars l1 d5 l1 d9 l4, PS) | – | – | 61 | –
TTGTCTCTAATCCTATT (sugars l2 d11 l4, PS) | 24 | 52 | – | –
CTTACCAATAGTTACC (sugars l4 d10 l2, PS) | 45 | 65 | – | –
CATTATTATTTAACCTT (sugars l2 d11 l4, PS) | -2 | 14 | – | –
TTTATTTCCATTTATTTTC (sugars llddlldddddddldllll, PS) | – | – | 66 | –
CTGTATACACCATCCCA (sugars ldlddddddddddldll, PS) | – | – | 62 | –
ACTGTTTATACCCTTTCC (sugars lddlddddddddddldll, PS) | – | – | 62 | –
TTTTTATACCTTTCTTTAAC (sugars lllldddddddddldlddll, PS) | – | – | 69 | –
TCATACTTGCTTTAAT (sugars l4 d10 l2, PS) | 13 | 38 | – | –
ATTTTTTTCTTACTATCTTC (sugars ldddllddddddddlddlll, PS) | – | – | 58 | –
TCCAGCATATTATATA (sugars l4 d10 l2, PS) | 24 | 10 | – | –
